Laboratory results from US11078495B2, “Methods and compositions for integration defective lentiviral vectors” (The University of North Carolina at Chapel Hill, priority 2015, dated 2021).

Test system: human embryo fibroblasts (HEFs)
Assay: Normalized luciferase expression from IDLV (pTK993) in human embryo fibroblasts treated with Velcade and/or sodium butyrate
Type: cell-based
Conditions: sample i: HEFs, Velcade 25 nM for 24 hours at transduction, sodium butyrate 5 mM for 48 hours from day 19; harvested 21 days post transduction; normalized to protein content and VCN
From the text: FIG. 7: A short-term treatment of host cells with proteasome inhibitor (velcade) at the time of IDLV transduction results in long-term sensitivity of IDLV expression to HDAC inhibitor (sodium butyrate) treatment. A) Depiction of a conventional self-inactivating HIV-1 vector (pTK993) from which the firefly luciferase is expressed under the control of a CMV promoter. […] B) To characterize the short- and long-term effects of HDAC and proteasome inhibitors on IDLV gene expression, human embryo fibroblasts (HEFs) were transduced with IDLV carrying the firefly luciferase cDNA under the control of a CMV promoter. HEF transduction was carried out either in the absence (samples a, d, g and h) or in the presence of Velcade (25 nM) for 24 hours (samples b, e and i) or sodium butyrate (5 mM) for 48 hours (samples c and f). At day 19 post transduction, sample g was treated with Velcade (25 nM) for 24 hours, while samples h and i were treated with sodium butyrate (5 mM) for 48 hours. Cell samples were harvested at either 48 hours (samples a-c) or 21 days post-transduction and analyzed for luciferase expression, which was normalized to protein content and vector copy number per diploid cell genome (VCN). The readout of normalized luciferase expression is shown above each sample. […]

## CC(C)C[C@H](NC(=O)[C@H](Cc1ccccc1)NC(=O)c1cnccn1)B(O)O [Velcade]
  fold of increase in IDLV expression (normalized luciferase) relative to sample-control: 75 fold
